Reference: patent US20150306269A1, “UPSTREAM HYDROGEN PEROXIDE […]” (The Vincit Company, LLC, priority 2014, published 2015)

Columns and labels:
bacteria [1] = experiment: Chicken wings: total plate count of inoculated chicken wing skin after exposure to treated air; type: cell-based; details: chicken wings inoculated in Tryptic Soy Broth with about seven log bacteria; maximum over 10, 30, 45 and 60 seconds treatment; nebulized 3% hydrogen peroxide; Tryptic Soy Agar, 24 hours
Protocol: Similar testing was performed on chicken wings. Twenty-four store-bought chicken wings were prepared by submersing them in a Tryptic Soy Broth broth solution containing about a seven log concentration of bacteria. The wings were removed and allowed to air dry. The wings were separated into groups of six, one group designated to be exposed to air running through the air sanitation system containing only nebulized 3% hydrogen peroxide, another group exposed to UV light-generated radicals, and the last group exposed to both 3% H2O2 and UV radicals. The final six wings were designated the control group and were exposed only to untreated air circulated though the sanitation system.
Immediately following treatment at times of 10 seconds, 30 seconds, 45 seconds and 60 seconds, approximately 1 square inch of skin on each wing was swabbed with moistened sample sponges. The sponges were stomached in phosphate buffer solution for 2 minutes, then the buffer solution was serially diluted and plated on Tryptic Soy Agar and incubated for 24 hours to obtain a total plate count.

bacteria [2] = experiment: Egg shell testing: total plate count of inoculated egg shells after exposure to treated air; type: cell-based; details: half egg shells inoculated in broth with about seven log bacteria; 10 minutes exposure; nebulized 3% hydrogen peroxide; swab plated on Tryptic Soy Agar, 24 hours
Protocol: In preliminary testing, twelve store-bought fresh eggs were prepared by blowing out the contents and cutting the egg shells in half. Twenty-four half shells were inoculated by submersion in a broth solution containing about a seven log concentration bacteria. Egg shells were removed and allowed to air dry. […] The final six shells were designated the control group and were exposed only to untreated air circulated though the sanitation system. The twenty-four half shells were allowed to be exposed to their respective situation for a period of 10 minutes.
Immediately following treatment, approximately 1 square inch swab samples were taken from the surface of each egg shell then serially diluted and plated on Tryptic Soy Agar and incubated for 24 hours to obtain a total plate count.

Q: What does the source list for `OO` [H2O2, hydrogen peroxide]?
A: maximum log10 reduction (total plate count) (bacteria [1]): 0.9 log10; log10 reduction (total plate count) (bacteria [2]): 1.5 log10
